Source: PubChem BioAssay (NCI)
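Briefly, cells in 96-well plates were exposed to five compound concentrations for 48 h, and endpoints were estimated by linear interpolation. Here, GI50 denotes the concentration required for 50% inhibition of growth. TGI marks complete inhibition of growth.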

Tests used:
Test in all cases: DTP human tumour cell line panel, 48 h
[1] = tested on: 786-0 renal
[2] = tested on: A498 renal
[3] = tested on: A549 NSCLC
[4] = tested on: ACHN renal
[5] = tested on: BT-549 breast
[6] = tested on: CAKI-1 renal
[7] = tested on: CCRF-CEM leukemia
[8] = tested on: COLO 205 colon
[9] = tested on: DU-145 prostate
[10] = tested on: EKVX NSCLC
[11] = tested on: HCC-2998 colon
[12] = tested on: HCT-116 colon
[13] = tested on: HCT-15 colon
[14] = tested on: HL-60(TB) leukemia
[15] = tested on: HOP-62 NSCLC
[16] = tested on: HOP-92 NSCLC
[17] = tested on: HS 578T breast
[18] = tested on: HT29 colon
[19] = tested on: IGROV1 ovarian
[20] = tested on: K-562 leukemia
[21] = tested on: KM12 colon
[22] = tested on: LOX IMVI melanoma
[23] = tested on: M14 melanoma
[24] = tested on: MALME-3M melanoma
[25] = tested on: MCF7 breast
[26] = tested on: MDA-MB-231 breast
[27] = tested on: MDA-MB-435
[28] = tested on: MOLT-4 leukemia
[29] = tested on: NCI-H226 lung

With COc1cc2c(F)nccc2cc1C(=O)N[C@@H](c1ccc(F)c(Cl)c1)[C@@H]1C[C@@H](O)CN1 the GI50 [1] was 0.076 µM, the TGI [1] was 11.5 µM and the GI50 [2] was 0.0301 µM. For the same molecule, the TGI [2] was 1.89 µM, the GI50 [3] was 3.14 µM and the TGI [3] was 39.6 µM. For the same molecule, the GI50 [4] was 9.59 µM, the TGI [4] was 22.3 µM and the GI50 [5] was 0.487 µM. For the same molecule, the TGI [5] was 4.81 µM, the GI50 [6] was 0.355 µM and the TGI [6] was 14.6 µM. For the same molecule, the GI50 [7] was 0.299 µM, the TGI [7] was > 42 µM and the GI50 [8] was 3.1 µM. For the same molecule, the TGI [8] was 19.4 µM, the GI50 [9] was 6.84 µM and the TGI [9] was 24 µM. It also gave a GI50 [10] of 2.02 µM, a TGI [10] of 17.8 µM and a GI50 [11] of 0.875 µM. The TGI [11] was 19.5 µM, the GI50 [12] was 3.31 µM and the TGI [12] was 17.2 µM. It also gave a GI50 [13] of 0.838 µM, a TGI [13] of 16.4 µM and a GI50 [14] of 2.11 µM. It also gave a TGI [14] of 5.61 µM, a GI50 [15] of 7.09 µM and a TGI [15] of 25.3 µM. It also gave a GI50 [16] of 0.291 µM, a TGI [16] of 7.83 µM and a GI50 [17] of 0.0715 µM. It also gave a TGI [17] of 2.41 µM, a GI50 [18] of 2.35 µM and a TGI [18] of 19.6 µM. It also gave a GI50 [19] of 0.0573 µM, a TGI [19] of 11.4 µM and a GI50 [20] of 3.87 µM. The TGI [20] was > 78.4 µM, the GI50 [21] was 1.69 µM and the TGI [21] was 19.3 µM. It also gave a GI50 [22] of 10.2 µM, a TGI [22] of 22.4 µM and a GI50 [23] of 10.5 µM. The TGI [23] was 23.2 µM, the GI50 [24] was 0.716 µM and the TGI [24] was 15.4 µM. The GI50 [25] was 0.575 µM, the TGI [25] was 12.1 µM and the GI50 [26] was 11.3 µM. It also gave a TGI [26] of 25 µM, a GI50 [27] of 2 µM and a TGI [27] of 17 µM. For the same molecule, the GI50 [28] was 0.188 µM, the TGI [28] was > 41.6 µM and the GI50 [29] was 5.99 µM.
